Assay results: US11407749B2, “Heterocyclic compounds as immunomodulators” (Incyte Corporation, priority 2015, dated 2022)

Biological target: PD-1/PD-L1 protein/protein interaction (Homo sapiens (Human), UniProt Q9NZQ7)
Test: PD-1/PD-L1 Homogeneous Time-Resolved Fluorescence (HTRF) Binding Assay
Details: recombinant human PD-L1 (19-238)-His and PD-1 (25-167)-Fc, 25° C., PBS pH 7.4
Procedure: Example A. PD-1/PD-L1 Homogeneous Time-Resolved Fluorescence (HTRF) Binding Assay
The assays were conducted in a standard black 384-well polystyrene plate with a final volume of 20 μL. Inhibitors were first serially diluted in DMSO and then added to the plate wells before the addition of other reaction components. The final concentration of DMSO in the assay was 1%. The assays were carried out at 25° C. in the PBS buffer (pH 7.4) with 0.05% Tween-20 and 0.1% BSA. Recombinant human PD-L1 protein (19-238) with a His-tag at the C-terminus was purchased from AcroBiosystems (PD1-H5229). Recombinant human PD-1 protein (25-167) with Fc tag at the C-terminus was also purchased from AcroBiosystems (PD1-H5257). PD-L1 and PD-1 proteins were diluted in the assay buffer and 10 μL was added to the plate well. Plates were centrifuged and proteins were preincubated with inhibitors for 40 minutes. The incubation was followed by the addition of 10 μL of HTRF detection buffer supplemented with Europium cryptate-labeled anti-human IgG (PerkinElmer-AD0212) specific for Fc and anti-His antibody conjugated to SureLight®-Allophycocyanin (APC, PerkinElmer-AD0059H). After centrifugation, the plate was incubated at 25° C. for 60 min. before reading on a PHERAstar FS plate reader (665 nm/620 nm ratio). Final concentrations in the assay were […], 10 nM PD-L1, 1 nM europium anti-human IgG and 20 nM anti-His-Allophycocyanin. IC50 determination was performed by fitting the curve of percent control activity versus the log of the inhibitor concentration using the GraphPad Prism 5.0 software.

PD-1/PD-L1 protein/protein interaction, sequence (Q9NZQ7 19-238): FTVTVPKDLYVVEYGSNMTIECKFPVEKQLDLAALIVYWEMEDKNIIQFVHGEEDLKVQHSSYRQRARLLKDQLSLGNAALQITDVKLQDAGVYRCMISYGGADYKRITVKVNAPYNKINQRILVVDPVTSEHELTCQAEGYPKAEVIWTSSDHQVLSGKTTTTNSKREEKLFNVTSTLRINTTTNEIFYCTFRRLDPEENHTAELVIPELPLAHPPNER

Row | IC50 [nM] | Compound
1 | ≤ 100 | Cc1c(-c2ccccc2)cccc1-c1nc2c(Cl)cc(CNCCO)cn2n1 [Example 21, 2-({[8-chloro-2-(2-methylbiphenyl-3-yl)-[1,2,4]triazolo[1,5-a]pyridin-6-yl]methyl}amino)ethanol]
2 | ≤ 100 | Cc1c(-c2ccccc2)cccc1-c1nc2c(CC#N)cc(CNCCO)cn2n1 [Example 24, [6-{[(2-hydroxyethyl)amino]methyl}-2-(2-methylbiphenyl-3-yl)[1,2,4]triazolo[1,5-a]pyridin-8-yl]acetonitrile]
3 | 100 to 500 | Cc1c(-c2ccccc2)cccc1-c1cn2cc(CNCCO)cc(Cl)c2n1 [Example 11, 2-((8-chloro-2-(2-methylbiphenyl-3-yl)imidazo[1,2-a]pyridin-6-yl)methylamino)ethanol]
4 | ≤ 100 | N#CCc1cc(CNCCO)cn2nc(-c3cccc(-c4ccc5c(c4)OCCO5)c3C#N)nc12 [Example 27, 2-(8-(cyanomethyl)-6-{[(2-hydroxyethyl)amino]methyl}[1,2,4]triazolo[1,5-a]pyridin-2-yl)-6-(2,3-dihydro-1,4-benzodioxin-6-yl)benzonitrile]
5 | ≤ 100 | Cc1c(-c2ccccc2)cccc1-c1nc2ccc(CNCCO)cn2n1 [Example 18, 2-({[2-(2-methylbiphenyl-3-yl)[1,2,4]triazolo[1,5-a]pyridin-6-yl]methyl}amino)ethanol]
6 | ≤ 100 | Cc1c(-c2ccccc2)cccc1-c1nc2c(CCCC#N)cc(CNCCO)cn2n1 [Example 23, 4-[6-{[(2-hydroxyethyl)amino]methyl}-2-(2-methylbiphenyl-3-yl)[1,2,4]triazolo[1,5-a]pyridin-8-yl]butanenitrile]
7 | ≤ 100 | N#Cc1c(-c2ccc3c(c2)OCCO3)cccc1-c1nc2c(Cl)cc(CNCCO)cn2n1 [Example 25, 2-(8-chloro-6-{[(2-hydroxyethyl)amino]methyl}[1,2,4]triazolo[1,5-a]pyridin-2-yl)-6-(2,3-dihydro-1,4-benzodioxin-6-yl)benzonitrile]
8 | ≤ 100 | N#Cc1c(-c2ccc3c(c2)OCCO3)cccc1-c1nc2c(C#N)cc(CNCCO)cn2n1 [Example 26, 2-[2-cyano-3-(2,3-dihydro-1,4-benzodioxin-6-yl)phenyl]-6-{[(2-hydroxyethyl)amino]methyl}[1,2,4]triazolo[1,5-a]pyridine-8-carbonitrile]
9 | 100 to 500 | COCCNc1cc(CNCCO)cn2nc(-c3cccc(-c4ccccc4)c3C)nc12 [Example 22, 2-({[8-[(2-methoxyethyl)amino]-2-(2-methylbiphenyl-3-yl)[1,2,4]triazolo[1,5-a]pyridin-6-yl]methyl}amino)ethanol]

Second part, the compound before the results:

Row | Compound | IC50 [nM]
10 | Cc1c(-c2ccccc2)cccc1-c1cn2nc(CN(C)CCO)cnc2n1 [Example 8, 2-(methyl((6-(2-methylbiphenyl-3-yl)imidazo[1,2-b][1,2,4]triazin-2-yl)methyl)amino)ethanol] | 100 to 500
11 | Cc1c(-c2ccccc2)cccc1-c1cn2cc(CN3CCCC[C@H]3C(=O)O)cc(C)c2n1 [Example 10, (S)-1-((8-methyl-2-(2-methylbiphenyl-3-yl)imidazo[1,2-a]pyridin-6-yl)methyl)piperidine-2-carboxylic acid] | 100 to 500
12 | Cc1c(-c2ccccc2)cccc1-c1cn2nc(CN3CCCC[C@H]3C(=O)O)ccc2n1 [Example 14, (S)-1-((2-(2-methylbiphenyl-3-yl)imidazo[1,2-b]pyridazin-6-yl)methyl)piperidine-2-carboxylic acid] | 500 to 10000
13 | Cc1c(-c2ccccc2)cccc1-c1nc2cc(CNCCO)nc(C)n2n1 [Example 20, 2-({[5-methyl-2-(2-methylbiphenyl-3-yl)[1,2,4]triazolo[1,5-c]pyrimidin-7-yl]methyl}amino)ethanol] | ≤ 100
14 | Cc1c(-c2ccccc2)cccc1-c1nc2cc(CNCCO)ccn2n1 [Example 16, 2-({[2-(2-methylbiphenyl-3-yl)[1,2,4]triazolo[1,5-a]pyridin-7-yl]methyl}amino)ethanol] | ≤ 100
15 | Cc1c(-c2ccccc2)cccc1-c1cn2nc(CNCCO)ccc2n1 [Example 15, 2-({[2-(2-methylbiphenyl-3-yl)imidazo[1,2-b]pyridazin-6-yl]methyl}amino)ethanol] | 100 to 500
16 | Cc1c(-c2ccccc2)cccc1-c1cc2cc(CN3CCCC[C@H]3C(=O)O)ncn2c1 [Example 4, (2S)-1-{[6-(2-methylbiphenyl-3-yl)pyrrolo[1,2-c]pyrimidin-3-yl]methyl}piperidine-2-carboxylic acid] | 500 to 10000
17 | Cc1c(-c2ccccc2)cccc1-c1cc2cc(CN3CCCC[C@H]3C(=O)O)ccn2c1 [Example 3, (2S)-1-{[2-(2-methylbiphenyl-3-yl)indolizin-7-yl]methyl}piperidine-2-carboxylic acid] | 100 to 500
18 | Cc1c(-c2ccccc2)cccc1-c1cn2nc(CNCC#N)cnc2n1 [Example 6, 2-((6-(2-methylbiphenyl-3-yl)imidazo[1,2-b][1,2,4]triazin-2-yl)methylamino)acetonitrile] | 100 to 500
19 | Cc1c(-c2ccccc2)cccc1-c1cn2cc(CNCCO)cc(C)c2n1 [Example 9, 2-((8-methyl-2-(2-methylbiphenyl-3-yl)imidazo[1,2-a]pyridin-6-yl)methylamino)ethanol] | 100 to 500
20 | Cc1c(-c2ccccc2)cccc1-c1nc2cc(CN3CCCC[C@H]3C(=O)O)ccn2n1 [Example 17, (2S)-1-{[2-(2-methylbiphenyl-3-yl)[1,2,4]triazolo[1,5-a]pyridin-7-yl]methyl}piperidine-2-carboxylic acid] | 100 to 500
21 | Cc1c(-c2ccccc2)cccc1-c1cn2cc(CNCCO)ncc2n1 [Example 13, 2-({[2-(2-methylbiphenyl-3-yl)imidazo[1,2-a]pyrazin-6-yl]methyl}amino)ethanol] | ≤ 100
22 | Cc1c(-c2ccccc2)cccc1-c1cn2cc(CNCCO)ccc2n1 [Example 1, 2-({[2-(2-methylbiphenyl-3-yl)imidazo[1,2-a]pyridin-6-yl]methyl}amino)ethanol] | 100 to 500
23 | Cc1c(-c2ccccc2)cccc1-c1cn2nc(CNCCO)cnc2n1 [Example 5, 2-((6-(2-methylbiphenyl-3-yl)imidazo[1,2-b][1,2,4]triazin-2-yl)methylamino)ethanol] | ≤ 100
24 | Cc1c(-c2ccccc2)cccc1-c1cn2nc(CNCC(N)=O)cnc2n1 [Example 7, 2-((6-(2-methylbiphenyl-3-yl)imidazo[1,2-b][1,2,4]triazin-2-yl)methylamino)acetamide] | 100 to 500
25 | Cc1c(-c2ccccc2)cccc1-c1cn2cc(CNCCO)cnc2n1 [Example 12, 2-({[2-(2-methylbiphenyl-3-yl)imidazo[1,2-a]pyrimidin-6-yl]methyl}amino)ethanol] | 100 to 500
26 | Cc1c(-c2ccccc2)cccc1-c1cc2cc(CNCCO)ccn2c1 [Example 2, 2-({[2-(2-methylbiphenyl-3-yl)indolizin-7-yl]methyl}amino)ethanol] | 100 to 500
27 | Cc1c(-c2ccccc2)cccc1-c1nc2ccc(CN3CCCC[C@H]3C(=O)O)cn2n1 [Example 19, (2S)-1-{[2-(2-methylbiphenyl-3-yl)[1,2,4]triazolo[1,5-a]pyridin-6-yl]methyl}piperidine-2-carboxylic acid] | 100 to 500
